Measurements: ChEMBL document CHEMBL5724914, “Linking interpersonal differences in gut microbiota composition and drug biotransformation activity” (2024)

Assay: (§1) The drug is tested on Z-021 corresponding to metagenome with ENA study accession number: PRJEB37062 and ENA sample accession number: ERS12561820 for biotransformation under anaerobic condition. The drug concentrations were measured over 9 timepoints collected between 0 and 24 hours of incubation by liquid-chromatography-coupled mass spectrometry (LC–MS)
Settings: 2 µM
Note: call rule not given here.

| Bacterial Biotransformation | Compound |
| --- | --- |
| Compound NOT metabolized | Nc1nnc(-c2cccc(Cl)c2Cl)c(N)n1 [LAMOTRIGINE] |
| Compound metabolized | OC(c1cc(C(F)(F)F)nc2c(C(F)(F)F)cccc12)C1CCCCN1 (stereo not given) [MEFLOQUINE] |

Assay: (§2) The drug is tested on WLS-027 corresponding to human gut metagenome with ENA study accession number: PRJEB37062 and ENA sample accession number: ERS12561744 for biotransformation under anaerobic condition. The drug concentrations were measured over 9 timepoints collected between 0 and 24 hours of incubation by liquid-chromatography-coupled mass spectrometry (LC–MS)
Settings: 2 µM

| Bacterial Biotransformation | Compound |
| --- | --- |
| Compound NOT metabolized | Nc1nnc(-c2cccc(Cl)c2Cl)c(N)n1 [LAMOTRIGINE] |
| Compound metabolized | OC(c1cc(C(F)(F)F)nc2c(C(F)(F)F)cccc12)C1CCCCN1 (stereo not given) [MEFLOQUINE] |

Settings: human gut metagenome, 24 h, 2 µM

| Bacterial Biotransformation | Compound |
| --- | --- |
| Compound NOT metabolized | Nc1nnc(-c2cccc(Cl)c2Cl)c(N)n1 [LAMOTRIGINE] |
| Compound metabolized | OC(c1cc(C(F)(F)F)nc2c(C(F)(F)F)cccc12)C1CCCCN1 (stereo not given) [MEFLOQUINE] |

Assay: as §2, with “Z-018” for “WLS-027”, “pig” for “human”, “ERS12561817” for “ERS12561744”
Settings: 2 µM

| Bacterial Biotransformation | Compound |
| --- | --- |
| Compound NOT metabolized | Nc1nnc(-c2cccc(Cl)c2Cl)c(N)n1 [LAMOTRIGINE] |
| Compound metabolized | OC(c1cc(C(F)(F)F)nc2c(C(F)(F)F)cccc12)C1CCCCN1 (stereo not given) [MEFLOQUINE] |

Settings: human gut metagenome, 24 h, 2 µM
Remark: another data set of the same source

| Bacterial Biotransformation | Compound |
| --- | --- |
| Compound NOT metabolized | Nc1nnc(-c2cccc(Cl)c2Cl)c(N)n1 [LAMOTRIGINE] |
| Compound metabolized | OC(c1cc(C(F)(F)F)nc2c(C(F)(F)F)cccc12)C1CCCCN1 (stereo not given) [MEFLOQUINE] |

Settings: human gut metagenome, 24 h, 2 µM
Remark: another data set of the same source

| Bacterial Biotransformation | Compound |
| --- | --- |
| Compound NOT metabolized | Nc1nnc(-c2cccc(Cl)c2Cl)c(N)n1 [LAMOTRIGINE] |
| Compound metabolized | OC(c1cc(C(F)(F)F)nc2c(C(F)(F)F)cccc12)C1CCCCN1 (stereo not given) [MEFLOQUINE] |

Assay: as §2, with “WLS-086” for “WLS-027”, “ERS12561752” for “ERS12561744”
Settings: 2 µM

| Bacterial Biotransformation | Compound |
| --- | --- |
| Compound metabolized | Nc1nnc(-c2cccc(Cl)c2Cl)c(N)n1 [LAMOTRIGINE] |
| Compound metabolized | OC(c1cc(C(F)(F)F)nc2c(C(F)(F)F)cccc12)C1CCCCN1 (stereo not given) [MEFLOQUINE] |

Assay: as §2, with “Z-014” for “WLS-027”, “rat” for “human”, “ERS12561814” for “ERS12561744”
Settings: 2 µM

| Bacterial Biotransformation | Compound |
| --- | --- |
| Compound NOT metabolized | Nc1nnc(-c2cccc(Cl)c2Cl)c(N)n1 [LAMOTRIGINE] |
| Compound NOT metabolized | OC(c1cc(C(F)(F)F)nc2c(C(F)(F)F)cccc12)C1CCCCN1 (stereo not given) [MEFLOQUINE] |

Settings: human gut metagenome, 24 h, 2 µM
Remark: another data set of the same source

| Bacterial Biotransformation | Compound |
| --- | --- |
| Compound NOT metabolized | Nc1nnc(-c2cccc(Cl)c2Cl)c(N)n1 [LAMOTRIGINE] |
| Compound metabolized | OC(c1cc(C(F)(F)F)nc2c(C(F)(F)F)cccc12)C1CCCCN1 (stereo not given) [MEFLOQUINE] |

Assay: as §2, with “WLS-082” for “WLS-027”, “ERS12561751” for “ERS12561744”
Settings: 2 µM

| Bacterial Biotransformation | Compound |
| --- | --- |
| Compound NOT metabolized | Nc1nnc(-c2cccc(Cl)c2Cl)c(N)n1 [LAMOTRIGINE] |
| Compound metabolized | OC(c1cc(C(F)(F)F)nc2c(C(F)(F)F)cccc12)C1CCCCN1 (stereo not given) [MEFLOQUINE] |

Assay: as §2, with “Z-019” for “WLS-027”, “rat” for “human”, “ERS12561818” for “ERS12561744”
Settings: 2 µM

| Bacterial Biotransformation | Compound |
| --- | --- |
| Compound NOT metabolized | Nc1nnc(-c2cccc(Cl)c2Cl)c(N)n1 [LAMOTRIGINE] |
| Compound NOT metabolized | OC(c1cc(C(F)(F)F)nc2c(C(F)(F)F)cccc12)C1CCCCN1 (stereo not given) [MEFLOQUINE] |

Assay: as §2, with “Z-001” for “WLS-027”, “mouse” for “human”, “ERS12561801” for “ERS12561744”
Settings: 2 µM

| Bacterial Biotransformation | Compound |
| --- | --- |
| Compound NOT metabolized | Nc1nnc(-c2cccc(Cl)c2Cl)c(N)n1 [LAMOTRIGINE] |
| Compound NOT metabolized | OC(c1cc(C(F)(F)F)nc2c(C(F)(F)F)cccc12)C1CCCCN1 (stereo not given) [MEFLOQUINE] |

Assay: as §2, with “WLS-090” for “WLS-027”, “ERS12561753” for “ERS12561744”
Settings: 2 µM

| Bacterial Biotransformation | Compound |
| --- | --- |
| Compound metabolized | Nc1nnc(-c2cccc(Cl)c2Cl)c(N)n1 [LAMOTRIGINE] |
| Compound metabolized | OC(c1cc(C(F)(F)F)nc2c(C(F)(F)F)cccc12)C1CCCCN1 (stereo not given) [MEFLOQUINE] |

Settings: human gut metagenome, 24 h, 2 µM
Remark: another data set of the same source

| Bacterial Biotransformation | Compound |
| --- | --- |
| Compound metabolized | Nc1nnc(-c2cccc(Cl)c2Cl)c(N)n1 [LAMOTRIGINE] |
| Compound metabolized | OC(c1cc(C(F)(F)F)nc2c(C(F)(F)F)cccc12)C1CCCCN1 (stereo not given) [MEFLOQUINE] |

Assay: as §2, with “Z-017” for “WLS-027”, “mouse” for “human”, “ERS12561816” for “ERS12561744”
Settings: 2 µM

| Bacterial Biotransformation | Compound |
| --- | --- |
| Compound NOT metabolized | Nc1nnc(-c2cccc(Cl)c2Cl)c(N)n1 [LAMOTRIGINE] |
| Compound NOT metabolized | OC(c1cc(C(F)(F)F)nc2c(C(F)(F)F)cccc12)C1CCCCN1 (stereo not given) [MEFLOQUINE] |

Settings: human gut metagenome, 24 h, 2 µM
Remark: another data set of the same source

| Bacterial Biotransformation | Compound |
| --- | --- |
| Compound NOT metabolized | Nc1nnc(-c2cccc(Cl)c2Cl)c(N)n1 [LAMOTRIGINE] |
| Compound metabolized | OC(c1cc(C(F)(F)F)nc2c(C(F)(F)F)cccc12)C1CCCCN1 (stereo not given) [MEFLOQUINE] |

Assay: as §2, with “WLS-039” for “WLS-027”, “ERS12561746” for “ERS12561744”
Settings: 2 µM

| Bacterial Biotransformation | Compound |
| --- | --- |
| Compound NOT metabolized | Nc1nnc(-c2cccc(Cl)c2Cl)c(N)n1 [LAMOTRIGINE] |
| Compound metabolized | OC(c1cc(C(F)(F)F)nc2c(C(F)(F)F)cccc12)C1CCCCN1 (stereo not given) [MEFLOQUINE] |

Assay: as §1, with “Z-010” for “Z-021”, “ERS12561810” for “ERS12561820”
Settings: 2 µM

| Bacterial Biotransformation | Compound |
| --- | --- |
| Compound NOT metabolized | Nc1nnc(-c2cccc(Cl)c2Cl)c(N)n1 [LAMOTRIGINE] |
| Compound metabolized | OC(c1cc(C(F)(F)F)nc2c(C(F)(F)F)cccc12)C1CCCCN1 (stereo not given) [MEFLOQUINE] |

Assay: as §1, with “Z-005” for “Z-021”, “ERS12561805” for “ERS12561820”
Settings: 2 µM

| Bacterial Biotransformation | Compound |
| --- | --- |
| Compound NOT metabolized | Nc1nnc(-c2cccc(Cl)c2Cl)c(N)n1 [LAMOTRIGINE] |
| Compound NOT metabolized | OC(c1cc(C(F)(F)F)nc2c(C(F)(F)F)cccc12)C1CCCCN1 (stereo not given) [MEFLOQUINE] |

Assay: as §2, with “WLS-170” for “WLS-027”, “ERS12561762” for “ERS12561744”
Settings: 2 µM

| Bacterial Biotransformation | Compound |
| --- | --- |
| Compound metabolized | Nc1nnc(-c2cccc(Cl)c2Cl)c(N)n1 [LAMOTRIGINE] |
| Compound metabolized | OC(c1cc(C(F)(F)F)nc2c(C(F)(F)F)cccc12)C1CCCCN1 (stereo not given) [MEFLOQUINE] |
